Values joined by “and” are separate entries in the source; they are usually repeats but may differ in a detail not shown here. Identical values can stand only once.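 Interpolation was linear, between the two tested concentrations surrounding the appropriate level; five concentrations were tested over 48 hours in 96-well plates. At the GI50, growth is halved. TGI denotes the concentration required for complete inhibition of growth.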 Bounds are passed on as bounds.

Assay in all cases: growth of human tumour cells (NCI), 48 h
Test [1] concerns BT-549 breast.
The test system of test [2] is SF-268 CNS.
Test [3] relates to UO-31 renal.
The subject of test [4] is DU-145 prostate.
Test [5] concerns SR leukemia.
The subject of test [6] is SF-539 CNS.
Test [7] relates to HT29 colon.
Test [8] has as its system T-47D breast.
Test [9] concerns UACC-62 melanoma.
Test [10] deals with SK-MEL-28 melanoma.

As for `CCCCCCOC(=O)CC1=C(C)/C(=C/c2[nH]c(-c3ccc[nH]3)cc2OC)N=C1C`, the GI50 is 0.0865 µM in [1]; 0.0818 µM in [2]; 0.163 µM in [3]; 0.0728 µM in [4]; 0.0307 µM in test [5]; 0.0635 µM in [6]. The GI50 in test [7] is 0.0331 µM; in test [8] it was 0.0367 µM. The TGI in [1] amounted to 1.59 µM; in test [2], 2 µM; in test [3] it was 0.329 µM; in test [4] it was 1.86 µM; in [5] it was 0.182 µM; in [6], 1.27 µM. The TGI in test [7] was found to be 1.05 µM; in test [8], 0.545 µM.

Consider `CC(=O)OCC1OC(SC2=N/C(=C\c3ccc(Br)s3)C(=O)N2c2ccccc2)C(OC(C)=O)C(OC(C)=O)C1OC(C)=O` (stereo unspecified), for which the TGI in test [1], in test [2], in [3], in [4], in test [5] and in test [9] was more than 100 µM throughout. Also, the TGI in test [7], in test [8] and in test [10] was more than 100 µM in each case. For the same compound, the GI50 in test [3] was 71.4 µM and 32.7 µM; in test [4], > 100 µM and 42.8 µM; in test [5], 35.6 µM and 9.68 µM; in test [7], > 100 µM and 28.6 µM; in test [8], 96.5 µM and 27.8 µM.

Take `CCCCCSc1ccc2nc(NC(=O)OCC)sc2c1`: the GI50 in test [1] was 0.487 µM; in test [2], 0.866 µM; in [3], 1.39 µM; in test [4], 1.72 µM; in test [5], 0.274 µM; in test [6], 0.4 µM. For the same compound, the results for the GI50 in test [7], in test [8] and in test [10] were 0.348 µM, 0.583 µM and 66.2 µM, respectively. Also, the TGI in test [1] is more than 100 µM; in test [2], more than 100 µM; in test [3], more than 100 µM; in [4], more than 100 µM; in test [5], more than 100 µM; in test [6] it was 4.77 µM. Further, the TGI in test [7], in test [8] and in [10] was more than 100 µM in each case.

Consider `O=Cc1ccc(-c2ccc(-c3nc4ccccc4s3)cc2)o1`, for which the GI50 in test [1] was more than 100 µM; in [2], 72.6 µM; in test [3] it was more than 100 µM; in test [4] it was 35 µM; in [9], more than 100 µM; in test [7], more than 100 µM. Further, the GI50 in test [8] and in test [10] was more than 100 µM throughout. For the same compound, the TGI in test [1], in test [2], in test [3], in [4], in [9] and in test [7] was more than 100 µM each time. Also, the TGI in test [8] and in test [10] was more than 100 µM in each case.

Consider `OCC1OC(N2C=C(c3nc4ccccc4s3)C3C=CC=CC32)C(O)C(O)C1O` (stereo unspecified), for which the GI50 in [1] was 16.5 µM; in test [2], 15 µM; in [3] it was 24.8 µM; in test [4], 20.6 µM; in test [5] it was 15.9 µM; in test [6] it was 14.8 µM. The GI50 in [9] was 12.5 µM; in test [7] it was 19 µM; in test [10], 19.2 µM. For the same compound, the TGI in [1] is more than 50 µM; in test [2], more than 50 µM; in [3], more than 50 µM; in [4], more than 50 µM; in [5] it was more than 50 µM; in test [6], 40.3 µM. Further, the TGI in [9] is 36.8 µM; in test [7] it was more than 50 µM; in test [10], more than 50 µM.

In the case of `CN1CCc2ccccc2C1Cc1ccccc1NC(=O)c1sc2ccccc2c1Cl` (stereo unspecified), the TGI in test [1], in [2], in test [3], in test [4], in test [5] and in [6] was more than 100 µM in each case. Also, the TGI in test [9], in test [8] and in [10] was more than 100 µM throughout.

Take `COc1ccc2c(n1)Sc1nc3ccccc3nc1N2`: the TGI in test [1] was more than 100 µM; in test [2], more than 100 µM; in test [3] it was 89.1 µM; in test [4], more than 100 µM; in test [6], 50.1 µM; in test [9], 43.4 µM. Also, the TGI in [7], in test [8] and in test [10] was more than 100 µM each time.

Regarding `N#Cc1c(N)nc2c(c1-c1ccc(Cl)cc1)COc1ccc(F)cc1-2`, the GI50 in [1] is 22 µM; in [2], 37.1 µM; in test [3] it was 13.8 µM; in test [4], 29.9 µM; in test [6], 20.1 µM; in test [9], 15.1 µM. The GI50 in [7] is 39.4 µM; in [8] it was 43.7 µM. The TGI in test [1] was 51.2 µM; in test [2], more than 100 µM; in test [3] it was 39.2 µM; in test [4], more than 100 µM; in test [6] it was 40.1 µM; in [9], 34.2 µM. The TGI in test [7] and in test [8] was more than 100 µM in each case.

As for `COc1ccc(C)c2sc(N(Cc3cccnc3)C(=O)c3ccc(C#N)cc3)nc12`, the GI50 was 35 µM in test [1]; 58.7 µM in [2]; 23.4 µM in test [3]; 51.9 µM in test [4]; 55.6 µM in [6]; 31.1 µM in [9]. For the same compound, the GI50 was 28.5 µM in [7] and 26.1 µM in [8]. The TGI in [1], in test [2], in test [3], in test [4], in [6] and in test [9] was more than 100 µM throughout. For the same compound, the TGI in test [7] and in [8] was more than 100 µM each time.

Turning to `COc1cc2c3c(n(CCCN=[N+]=[N-])c(=O)c2cc1OC)-c1ccccc1C3=O`, the GI50 is 24.4 µM in test [1]; more than 100 µM in [2]; more than 100 µM in [3]; 28 µM in test [4]; 4.73 µM in test [6]; 2.63 µM in [9]. Moreover, the GI50 in [7], in [8] and in [10] was more than 100 µM in each case. The TGI was more than 100 µM in test [1]; more than 100 µM in test [2]; more than 100 µM in test [3]; more than 100 µM in test [4]; 22.8 µM in test [6]; 27.6 µM in test [9]. Further, the TGI in [7], in [8] and in test [10] was more than 100 µM in each case.

As for `COc1ccc(-c2cnc(-c3ccc(OC)cc3)n2-c2cc(OC)c(OC)c(OC)c2)cc1`, the GI50 in test [1] was 28.6 µM; in test [2], 30.6 µM; in test [3], 18.2 µM; in [4] it was 30.7 µM; in [6], 23.9 µM; in test [9], 17.3 µM. Besides, the GI50 is 47.7 µM in test [7], 39.4 µM in [8] and 24.4 µM in test [10]. Further, the TGI is 86.1 µM in test [1]; more than 100 µM in [2]; 50 µM in [3]; 78.2 µM in test [4]; 54.9 µM in test [6]; 45 µM in test [9]. In addition, the TGI in [7] was more than 100 µM; in test [8] it was more than 100 µM; in test [10], 92 µM.

In the case of `c1cc(OCCN2CCCC2)ccc1CNc1ccc2nc(CCC3CCCCC3)[nH]c2c1`, the GI50 in test [1] was 1.56 µM; in test [2] it was 1.82 µM; in [3], 1.42 µM; in test [4], 3.43 µM; in test [5], 0.29 µM; in [6], 1.51 µM. Moreover, the GI50 is 1.85 µM in test [9], 0.535 µM in test [7] and 1.81 µM in test [8]. For the same compound, the TGI was determined as 3.17 µM in [1]; 4.38 µM in test [2]; 2.75 µM in test [3]; 12.4 µM in [4]; 1.03 µM in [5]; 3 µM in [6]. Further, the TGI in [9] came to 3.33 µM; in test [7] it was 2.23 µM; in [8], 4.9 µM.

Regarding `COc1ccc(C(=O)/C=C/c2cc(-c3ccc(OC)c(OC)c3)n[nH]2)cc1OC`, the GI50 in [1] was 1.44 µM; in test [2], 2.09 µM; in test [3] it was 1.5 µM; in test [4], 1.64 µM; in test [6], 0.525 µM; in test [7], 1.38 µM. For the same compound, the GI50 is 1.36 µM in test [8] and 1.82 µM in test [10]. Besides, the TGI in [1] is 2.92 µM; in test [2] it was 9.82 µM; in [3], 3.8 µM; in test [4], 4.8 µM; in test [6] it was 2.54 µM; in test [7], 4.95 µM. Moreover, the results for the TGI in test [8] and in test [10] were 6.65 µM and 4.82 µM, respectively.

In the case of `COc1ccc(O)c(/C=N\Nc2ccccc2)c1`, the TGI in test [1] was more than 100 µM; in test [2], more than 100 µM; in [3], more than 100 µM; in test [4] it was more than 100 µM; in test [6], 68.4 µM; in [9] it was 12.3 µM. The results for the TGI in [7], in test [8] and in test [10] were 29.9 µM, more than 100 µM and 91.4 µM, respectively.
